As usually defined, the IC50 is the concentration that gives 50% inhibition.

What all share (format): biochemical
One assay addresses CLK4 (Homo sapiens (Human), UniProt Q9HAZ1). Put plainly: Inhibition of CLK4 kinase activity evaluated at Nanosyn (ADP-Glo). The settings on record: ADP-Glo luminescence. The method in brief: (§1)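 ADP-Glo luminescence (40 min depletion, 10 min detection) quantifies ADP from ATP-initiated phosphorylation of substrate by each CLK isoform in HEPES pH 7.5 buffer, 1% DMSO, assay-specific incubation. %-inhibition calculated against uninhibited and enzyme-free controls.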
(In general: ADP-Glo first removes unused ATP, then detects ADP through luciferase.)

A further assay addresses CLK3 (Homo sapiens (Human), UniProt P49761). Put plainly: Inhibition of CLK3 kinase activity evaluated at Nanosyn (ADP-Glo). The settings on record: ADP-Glo luminescence. A digest of the protocol:
as §1

The target of assay [1] is EGFR Δ746-750/C797S mutant (Homo sapiens (Human), UniProt P00533, C797S/DEL746-750). Put plainly: HotSpot radiometric kinase assay, EGFR Δ746-750/C797S mutant. As to conditions: 10 μM ATP. A digest of the protocol:
(§2)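 Radiometric filter-binding assay with EGFR mutant kinase/substrate pairs in 20 mM Hepes pH 7.5 with Mg, EGTA, Brij35, BSA, Na3VO4, DTT, 1% DMSO. Compound preincubated ~20 min, then ATP/^33P-ATP added at 10 μM final. Reaction 120 min at room temperature, spotted on P81 paper; IC50 from curve fits.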

Another assay deals with CLK2 (Homo sapiens (Human), UniProt P49760). The assay is described as follows: Inhibition of CLK2 kinase activity evaluated at Nanosyn (ADP-Glo). As to conditions: ADP-Glo luminescence. A digest of the protocol: as §1
Sequence of CLK2 (P49760 whole entry): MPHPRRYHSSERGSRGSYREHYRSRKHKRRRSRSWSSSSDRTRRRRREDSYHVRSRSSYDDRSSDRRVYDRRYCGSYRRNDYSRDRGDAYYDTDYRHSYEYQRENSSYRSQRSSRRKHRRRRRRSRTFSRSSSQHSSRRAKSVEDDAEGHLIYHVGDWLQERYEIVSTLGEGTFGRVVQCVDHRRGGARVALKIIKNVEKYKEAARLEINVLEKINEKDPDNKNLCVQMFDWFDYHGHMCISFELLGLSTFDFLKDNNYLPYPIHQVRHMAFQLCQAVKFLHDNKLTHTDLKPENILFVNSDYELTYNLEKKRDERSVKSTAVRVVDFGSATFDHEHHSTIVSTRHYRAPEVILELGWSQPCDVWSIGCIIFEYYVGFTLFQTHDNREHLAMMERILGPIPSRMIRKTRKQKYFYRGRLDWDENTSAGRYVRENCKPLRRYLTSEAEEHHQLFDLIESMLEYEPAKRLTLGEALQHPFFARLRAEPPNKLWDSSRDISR
In the next assay the target is EGFR L858R mutant (Homo sapiens (Human), UniProt P00533, L858R). The assay is described as follows: HotSpot radiometric kinase assay, EGFR L858R mutant. As to conditions: 10 μM ATP. The method in brief: as §2
The target in a further assay is CLK1 (Homo sapiens (Human), UniProt P49759). The assay is described as follows: Inhibition of CLK1 kinase activity evaluated at Nanosyn (ADP-Glo). As to conditions: ADP-Glo luminescence. The method in brief:
as §1

The next assay deals with EGFR (D770_N771insNPG) (Homo sapiens (Human), UniProt P00533, INS770NPG). Put plainly: HotSpot radiometric kinase assay, EGFR (D770_N771insNPG). As to conditions: 10 μM ATP, read-out: EGFR (Δ770_N771insNPG) IC50. A digest of the protocol:
as §2

The target of a further assay is EGFR Δ746-750 mutant (Homo sapiens (Human), UniProt P00533, DEL746-750). Put plainly: HotSpot radiometric kinase assay, EGFR Δ746-750 mutant. The settings on record: 10 μM ATP. A digest of the protocol:
as §2

For the next assay, the target named is EGFR WT (Homo sapiens (Human), UniProt P00533). The assay is described as follows: HotSpot radiometric kinase assay (Reaction Biology), EGFR WT. The settings on record: 10 μM ATP. A digest of the protocol:
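Enzyme and substrate pairs were exposed to inhibitor for roughly 20 min before radiolabelled ATP (10 μM final) was introduced; the reaction proceeded 120 min at ambient temperature in pH 7.5 buffer with 1% DMSO, and phosphorylated product was captured on P81 filters for IC50 determination.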

Another assay concerns the target EGFR L858R/T790M mutant (Homo sapiens (Human), UniProt P00533, L858R/T790M). The assay is described as follows: HotSpot radiometric kinase assay, EGFR L858R/T790M mutant. As to conditions: 10 μM ATP. The method in brief: as §2
Assay [2] addresses EGFR L858R/T790M/C797S mutant (Homo sapiens (Human), UniProt P00533, C797S/L858R/T790M). The assay is described as follows: HotSpot radiometric kinase assay, EGFR L858R/T790M/C797S mutant. The settings on record: 10 μM ATP. A digest of the protocol: as §2

Sequence of EGFR Δ746-750 mutant (P00533 other isoform, or with tags, fused parts or gaps del 1-668/del 746-750 limits assumed): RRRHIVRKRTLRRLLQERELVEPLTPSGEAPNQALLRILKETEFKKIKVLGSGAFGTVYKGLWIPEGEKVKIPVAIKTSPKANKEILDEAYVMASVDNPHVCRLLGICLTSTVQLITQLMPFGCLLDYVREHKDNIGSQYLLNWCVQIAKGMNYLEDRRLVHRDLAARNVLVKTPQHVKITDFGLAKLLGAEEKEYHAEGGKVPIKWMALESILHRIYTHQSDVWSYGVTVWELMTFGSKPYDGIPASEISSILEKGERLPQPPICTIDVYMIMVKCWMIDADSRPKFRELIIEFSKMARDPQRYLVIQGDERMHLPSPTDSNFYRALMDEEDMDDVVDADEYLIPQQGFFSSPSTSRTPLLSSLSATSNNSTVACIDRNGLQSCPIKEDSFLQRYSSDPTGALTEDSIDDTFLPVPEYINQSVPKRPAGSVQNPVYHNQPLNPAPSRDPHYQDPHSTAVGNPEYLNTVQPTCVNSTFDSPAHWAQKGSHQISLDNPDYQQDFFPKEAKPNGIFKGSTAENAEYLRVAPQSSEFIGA
Sequence of EGFR L858R/T790M mutant (P00533 25-1210 T790M/L858R): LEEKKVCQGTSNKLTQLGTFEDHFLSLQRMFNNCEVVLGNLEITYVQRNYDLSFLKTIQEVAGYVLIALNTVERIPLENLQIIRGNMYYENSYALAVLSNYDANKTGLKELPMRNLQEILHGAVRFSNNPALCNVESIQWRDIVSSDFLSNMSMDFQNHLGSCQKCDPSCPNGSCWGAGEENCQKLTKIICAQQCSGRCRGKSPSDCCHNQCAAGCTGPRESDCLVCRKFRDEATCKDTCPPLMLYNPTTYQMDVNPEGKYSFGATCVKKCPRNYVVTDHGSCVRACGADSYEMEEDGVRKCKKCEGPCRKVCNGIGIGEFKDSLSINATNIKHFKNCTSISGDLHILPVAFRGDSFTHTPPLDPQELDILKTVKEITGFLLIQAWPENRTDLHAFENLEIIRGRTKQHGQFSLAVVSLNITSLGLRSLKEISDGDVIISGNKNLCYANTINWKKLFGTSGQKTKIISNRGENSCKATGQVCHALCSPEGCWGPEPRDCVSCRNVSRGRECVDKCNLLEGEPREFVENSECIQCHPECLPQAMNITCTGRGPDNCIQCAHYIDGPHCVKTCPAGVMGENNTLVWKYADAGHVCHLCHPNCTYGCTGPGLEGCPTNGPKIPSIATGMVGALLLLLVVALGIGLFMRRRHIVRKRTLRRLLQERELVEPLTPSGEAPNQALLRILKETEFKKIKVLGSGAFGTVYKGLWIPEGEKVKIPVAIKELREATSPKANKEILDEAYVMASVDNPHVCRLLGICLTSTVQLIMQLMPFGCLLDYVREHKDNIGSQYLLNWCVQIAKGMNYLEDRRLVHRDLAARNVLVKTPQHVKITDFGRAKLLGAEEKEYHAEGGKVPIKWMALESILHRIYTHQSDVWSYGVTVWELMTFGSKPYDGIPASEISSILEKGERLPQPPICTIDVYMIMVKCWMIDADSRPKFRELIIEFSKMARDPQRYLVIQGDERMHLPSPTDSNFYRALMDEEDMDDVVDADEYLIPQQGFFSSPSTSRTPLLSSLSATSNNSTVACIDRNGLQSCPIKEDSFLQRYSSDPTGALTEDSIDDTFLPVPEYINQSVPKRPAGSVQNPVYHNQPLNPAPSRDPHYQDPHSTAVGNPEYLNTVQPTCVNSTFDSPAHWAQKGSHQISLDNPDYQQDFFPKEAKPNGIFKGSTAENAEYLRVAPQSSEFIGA
Sequence of EGFR WT (P00533 25-1210): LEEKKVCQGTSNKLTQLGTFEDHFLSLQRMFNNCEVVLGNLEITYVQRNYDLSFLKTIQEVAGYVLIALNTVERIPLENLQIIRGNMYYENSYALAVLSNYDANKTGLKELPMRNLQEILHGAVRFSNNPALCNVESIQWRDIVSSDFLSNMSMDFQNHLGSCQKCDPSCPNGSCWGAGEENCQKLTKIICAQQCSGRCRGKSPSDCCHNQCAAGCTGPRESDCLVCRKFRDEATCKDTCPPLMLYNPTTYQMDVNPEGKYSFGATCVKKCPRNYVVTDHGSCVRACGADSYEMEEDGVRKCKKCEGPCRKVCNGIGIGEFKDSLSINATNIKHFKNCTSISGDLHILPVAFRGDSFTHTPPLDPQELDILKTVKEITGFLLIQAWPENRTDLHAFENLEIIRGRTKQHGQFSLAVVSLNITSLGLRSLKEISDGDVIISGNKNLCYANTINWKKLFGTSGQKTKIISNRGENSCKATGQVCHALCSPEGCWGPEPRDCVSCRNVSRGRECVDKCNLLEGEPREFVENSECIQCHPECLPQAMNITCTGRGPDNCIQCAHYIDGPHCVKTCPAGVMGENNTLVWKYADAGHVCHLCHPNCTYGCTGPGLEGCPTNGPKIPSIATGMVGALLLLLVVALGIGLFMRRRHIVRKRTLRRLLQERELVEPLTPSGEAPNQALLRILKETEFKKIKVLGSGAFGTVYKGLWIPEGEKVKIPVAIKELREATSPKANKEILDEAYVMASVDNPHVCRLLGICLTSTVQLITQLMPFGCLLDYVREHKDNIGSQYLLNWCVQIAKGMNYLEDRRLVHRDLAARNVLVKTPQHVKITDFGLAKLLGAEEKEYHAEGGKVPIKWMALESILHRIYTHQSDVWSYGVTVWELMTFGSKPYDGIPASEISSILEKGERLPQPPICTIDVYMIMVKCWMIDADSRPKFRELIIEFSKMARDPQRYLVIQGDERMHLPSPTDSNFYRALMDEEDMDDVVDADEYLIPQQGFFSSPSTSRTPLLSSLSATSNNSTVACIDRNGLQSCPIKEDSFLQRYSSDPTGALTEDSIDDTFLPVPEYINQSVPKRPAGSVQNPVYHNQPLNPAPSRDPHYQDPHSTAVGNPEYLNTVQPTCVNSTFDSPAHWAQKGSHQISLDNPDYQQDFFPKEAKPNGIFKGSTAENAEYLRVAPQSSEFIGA
Sequence of EGFR L858R/T790M/C797S mutant (P00533 25-1210 T790M/C797S/L858R): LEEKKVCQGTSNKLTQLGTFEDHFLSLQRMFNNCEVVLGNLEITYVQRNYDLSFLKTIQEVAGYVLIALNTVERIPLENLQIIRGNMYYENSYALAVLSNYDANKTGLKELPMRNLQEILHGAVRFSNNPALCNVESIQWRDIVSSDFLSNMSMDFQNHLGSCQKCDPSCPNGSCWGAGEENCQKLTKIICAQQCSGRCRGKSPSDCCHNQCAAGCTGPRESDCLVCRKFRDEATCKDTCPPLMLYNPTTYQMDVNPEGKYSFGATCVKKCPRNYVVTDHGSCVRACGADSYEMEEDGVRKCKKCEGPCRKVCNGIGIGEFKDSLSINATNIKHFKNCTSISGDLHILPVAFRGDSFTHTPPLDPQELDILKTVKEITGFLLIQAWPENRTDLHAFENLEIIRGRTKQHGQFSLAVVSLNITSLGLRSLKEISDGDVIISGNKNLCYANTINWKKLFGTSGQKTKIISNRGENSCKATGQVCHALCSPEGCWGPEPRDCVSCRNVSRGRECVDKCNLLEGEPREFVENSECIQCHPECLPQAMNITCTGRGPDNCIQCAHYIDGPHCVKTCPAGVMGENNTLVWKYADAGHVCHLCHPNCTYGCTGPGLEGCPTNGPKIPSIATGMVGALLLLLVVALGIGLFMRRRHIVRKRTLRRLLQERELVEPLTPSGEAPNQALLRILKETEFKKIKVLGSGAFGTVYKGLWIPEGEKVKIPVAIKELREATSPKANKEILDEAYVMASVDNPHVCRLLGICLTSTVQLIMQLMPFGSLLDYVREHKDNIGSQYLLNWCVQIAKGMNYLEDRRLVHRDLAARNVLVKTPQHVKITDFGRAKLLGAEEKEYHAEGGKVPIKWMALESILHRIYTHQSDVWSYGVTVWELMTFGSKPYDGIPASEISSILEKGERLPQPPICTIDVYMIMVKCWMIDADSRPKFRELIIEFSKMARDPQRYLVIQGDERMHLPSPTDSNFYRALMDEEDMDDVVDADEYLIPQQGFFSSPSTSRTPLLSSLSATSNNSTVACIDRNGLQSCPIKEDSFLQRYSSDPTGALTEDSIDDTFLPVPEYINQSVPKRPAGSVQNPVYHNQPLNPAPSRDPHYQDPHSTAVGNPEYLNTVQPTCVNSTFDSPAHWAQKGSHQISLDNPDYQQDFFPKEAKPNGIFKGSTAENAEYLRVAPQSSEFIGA
Sequence of CLK3 (P49761 whole entry): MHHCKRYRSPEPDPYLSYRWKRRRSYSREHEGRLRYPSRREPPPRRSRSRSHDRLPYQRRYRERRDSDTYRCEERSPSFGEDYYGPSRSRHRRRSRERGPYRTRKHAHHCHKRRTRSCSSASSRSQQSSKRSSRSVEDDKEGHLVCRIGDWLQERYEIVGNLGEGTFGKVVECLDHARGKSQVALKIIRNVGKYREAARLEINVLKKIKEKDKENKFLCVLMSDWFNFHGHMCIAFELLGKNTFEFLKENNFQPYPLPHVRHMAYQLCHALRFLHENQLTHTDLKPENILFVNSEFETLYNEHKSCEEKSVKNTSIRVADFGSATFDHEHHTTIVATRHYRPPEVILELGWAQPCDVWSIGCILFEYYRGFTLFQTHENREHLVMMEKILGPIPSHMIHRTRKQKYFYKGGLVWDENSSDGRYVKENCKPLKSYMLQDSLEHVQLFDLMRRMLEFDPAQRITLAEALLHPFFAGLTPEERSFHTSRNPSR

With `C[C@H]1CN(C)Cc2c(c(O)nn2CCO)/C=C/c2n[nH]c3ccc(cc23)-c2cnn(C)c2O1` [Example 186, (10S,17E)-14-(2-hydroxyethyl)-8,10,12-trimethyl-2,10,11,12,13,14-hexahydro-8H-3,5-ethenotripyrazolo[3,4-f:3′,4′-j:4″,3″-n][1,4]oxazacyclopentadecin-16-ol], the IC50 was 1 nM at CLK4; 126 nM on CLK3; 3.06 nM in assay [1]; 0.18 nM on CLK2; 14.6 nM against EGFR L858R mutant; 0.24 nM at CLK1. Also, the IC50 at EGFR (D770_N771insNPG) came out at 59.1 nM; on EGFR Δ746-750 mutant it was 12.9 nM; against EGFR WT, 43.8 nM; against EGFR L858R/T790M mutant, 1.48 nM; in assay [2], 0.46 nM.
For the compound `CCOc1noc2c1/C=C/c1n[nH]c3ccc(cc13)-c1cnn(C)c1O[C@@H](C)CN(C)C2` [Example 183, (10S,17E)-16-ethoxy-8,10,12-trimethyl-2,8,10,11,12,13-hexahydro-3,5-etheno[1,2]oxazolo[5,4-f]dipyrazolo[3,4-j:4′,3′-n][1,4]oxazacyclopentadecine], the half-inhibitory concentration (IC50) at CLK4 turned out to be 1.83 nM; at CLK3 it was 155 nM; in assay [1], 17.7 nM; at CLK2, 0.24 nM; against EGFR L858R mutant, 61.5 nM; at CLK1 it was 0.82 nM. In addition, the IC50 on EGFR (D770_N771insNPG) was found to be 534 nM; at EGFR Δ746-750 mutant it was 53.8 nM; at EGFR WT, 195 nM; against EGFR L858R/T790M mutant it was 0.65 nM; in assay [2], 1.05 nM.
Consider `CCOc1nn(CCO)c2c1/C=C/c1n[nH]c3ccc(cc13)-c1cnn(C)c1O[C@@H](CC)CN(C)C2` [Example 260, 2-[(10S,17E)-16-ethoxy-10-ethyl-8,12-dimethyl-2,8,10,11,12,13-hexahydro-14H-3,5-ethenotripyrazolo[3,4-f:3′,4′-j:4″,3″-n][1,4]oxazacyclopentadecin-14-yl]ethan-1-ol], for which the IC50 is 3.15 nM on CLK4; 361 nM on CLK3; 3.74 nM in [1]; 5.21 nM at CLK2; 4.55 nM against EGFR L858R mutant; 4.9 nM at CLK1. In addition, the IC50 at EGFR (D770_N771insNPG) was found to be 25.3 nM; on EGFR Δ746-750 mutant, 3.5 nM; against EGFR WT, 13.6 nM; against EGFR L858R/T790M mutant, 0.9 nM; in [2] it was 3.19 nM.
Turning to `CCOc1nn(C)c2c1/C=C/c1n[nH]c3ccc(cc13)-c1cnn(C)c1O[C@@H]1CCN(C2)C1` [Example 236, (10R,18E)-17-ethoxy-8,15-dimethyl-2,8,11,12,14,15-hexahydro-10H-3,5-etheno-10,13-methanotripyrazolo[3,4-g:3′,4′-k:4″,3″- o][1,5]oxazacyclohexadecine], the IC50 is 1.03 nM at CLK4; 397 nM on CLK3; 11.5 nM in [1]; 1.73 nM at CLK2; 12 nM against EGFR L858R mutant; 0.66 nM on CLK1. Besides, the concentration for half-maximal inhibition (IC50) came out at 68.9 nM on EGFR (D770_N771insNPG); 5.11 nM against EGFR Δ746-750 mutant; 26.8 nM at EGFR WT; 0.8 nM at EGFR L858R/T790M mutant; 1.06 nM in assay [2].
As for `CC(C)Oc1nn(CCO)c2c1/C=C/c1n[nH]c3ccc(cc13)-c1cnn(C)c1O[C@@H](C)CN(C)[C@@H]2C` [Example 223], the IC50 at CLK4 is 2.11 nM; on CLK3 it was 30 nM; in assay [1], 3.12 nM; on CLK2, 0.28 nM; at EGFR L858R mutant, 7.07 nM; at CLK1, 0.85 nM. Also, the IC50 came out at 102 nM at EGFR (D770_N771insNPG); 4.07 nM at EGFR Δ746-750 mutant; 42.6 nM against EGFR WT; 0.61 nM against EGFR L858R/T790M mutant; 0.34 nM in assay [2].
In the case of `Cc1nn(CCO)c2c1/C=C/c1n[nH]c3ccc(cc13)-c1cnn(C)c1O[C@@H](C)CN(C(C)C)C2` [Example 114, 2-[(10S,17E)-8,10,16-trimethyl-12-(propan-2-yl)-2,8,10,11,12,13-hexahydro-14H-3,5-ethenotripyrazolo[3,4-f:3′,4′-j:4″,3″- n][1,4]oxazacyclopentadecin-14-yl]ethan-1-ol], the IC50 amounted to 0.46 nM on CLK4; 20.9 nM at CLK3; 0.92 nM in assay [1]; 0.12 nM at CLK2; 0.1 nM against EGFR L858R mutant; 0.23 nM on CLK1. The IC50 on EGFR (D770_N771insNPG) came out at 0.91 nM; on EGFR Δ746-750 mutant, 0.17 nM; against EGFR WT it was 0.38 nM; at EGFR L858R/T790M mutant, 0.11 nM; in [2], 0.98 nM.
Regarding `C[C@H](C#N)Oc1nn(CCO)c2c1/C=C/c1n[nH]c3cc(F)c(cc13)-c1cnn(C)c1O[C@@H](C)CN(C)C2` [Ex. 268, (2R)-2-{[(10S,17E)-19-fluoro-14-(2-hydroxyethyl)-8,10,12-trimethyl-2,10,11,12,13,14-hexahydro-8H-3,5-ethenotripyrazolo[3,4-f:3′,4′-j:4″,3″-n][1,4]oxazacyclopentadecin-16-yl]oxy}propanenitrile], the IC50 at CLK4 was 1.22 nM; at CLK3 it was 45.1 nM; in assay [1] it was 1.32 nM; at CLK2, 0.18 nM; against EGFR L858R mutant, 4.35 nM; on CLK1, 0.57 nM. Further, the IC50 at EGFR (D770_N771insNPG) turned out to be 30.5 nM; on EGFR Δ746-750 mutant it was 2.01 nM; against EGFR WT, 7.91 nM; against EGFR L858R/T790M mutant, 1.04 nM; in assay [2], 0.52 nM.
For the compound `CC(C)Oc1nn(CCO)c2c1/C=C/c1n[nH]c3ccc(cc13)-c1cnn(C)c1OCC(CF)N(C)C2` (centres unmarked) [Example 226, 2-{(17E)-11-(fluoromethyl)-8,12-dimethyl-16-[(propan-2-yl)oxy]-2,8,10,11.12,13-hexahydro-14H-3,5-ethenotripyrazolo[3,4-f:3′,4′-j:4″,3″-n][1,4]oxazacyclopentadecin-14-yl}ethan-1-ol], the IC50 on CLK4 stood at 1.44 nM; at CLK3, 369 nM; in [1] it was 6.43 nM; at CLK2 it was 0.99 nM; on EGFR L858R mutant it was 50.7 nM; on CLK1, 0.87 nM. The IC50 stood at 222 nM at EGFR (D770_N771insNPG); 8.98 nM at EGFR Δ746-750 mutant; 121 nM against EGFR WT; 1.19 nM against EGFR L858R/T790M mutant; 0.6 nM in [2].
For `CCOc1nn([C@H](C)CO)c2c1/C=C/c1n[nH]c3ccc(cc13)-c1cnn(C)c1O[C@@H](C)CN(C)C2` [Example 171, (2R)-2-[(10S,17E)-16-ethoxy-8,10,12-trimethyl-2,8,10,11,12,13-hexahydro-14H-3,5-ethenotripyrazolo[3,4-f:3′,4′-j:4″,3″-n][1,4]oxazacyclopentadecin-14-yl]propan-1-ol], the IC50 is 0.57 nM at CLK4; 977 nM at CLK3; 8.74 nM in [1]; 0.62 nM at CLK2; 7.5 nM on EGFR L858R mutant; 0.85 nM at CLK1. Moreover, the IC50 was found to be 86 nM on EGFR (D770_N771insNPG); 38.3 nM against EGFR Δ746-750 mutant; 67.2 nM against EGFR WT; 0.5 nM at EGFR L858R/T790M mutant; 1.32 nM in assay [2].
Turning to `CCOc1nn(C)c2c1/C=C/c1n[nH]c3ccc(cc13)-c1cnn(C)c1OC1CN(C2)C1` [Example 238, (17E)-16-ethoxy-8,14-dimethyl-2,8,10,11,13,14-hexahydro-3,5-etheno-10,12-methanotripyrazolo[3,4-f:3′,4′-j:4″,3″-n][1,4]oxazacyclopentadecine], the half-maximal inhibitory concentration (IC50) on CLK4 worked out at 1.07 nM; at CLK3 it was 1000 nM; in [1], 41.3 nM; at CLK2, 2.44 nM; at EGFR L858R mutant, 73 nM; on CLK1 it was 0.9 nM. Besides, the concentration for half-maximal inhibition (IC50) at EGFR (D770_N771insNPG) was found to be 219 nM; against EGFR Δ746-750 mutant, 17.5 nM; against EGFR WT, 203 nM; on EGFR L858R/T790M mutant, 10.2 nM; in assay [2], 11.7 nM.

The values above are taken from patent publication US20250353864A1, “INDAZOLE CONTAINING MACROCYCLES AND THEIR USE” (BLOSSOMHILL THERAPEUTICS, INC., priority 2022, published 2025).
